Columns and labels:
MC-38 cells = assay: MC38 model of colorectal cancer, subcutaneous tumors; format: in vivo, C57BL/6J male mice; details: 300 ug/kg, SC, P<0.05 vs placebo
Procedure: A representative compound of Formula IV, bis RvE1 magnesium di-lysinate (Compound 1), was tested for efficacy in several preclinical mouse models including the Panc2-H7 model of pancreatic cancer, and the MC38 model of colorectal cancer. These models are well established, highly tumorigenic syngeneic models in which murine cancer cell lines are injected subcutaneously (SC) into the dorsum of C57BL/6J mice. If left untreated, these tumors grow rapidly and lead to death or euthanasia, per protocol. As detailed below in Examples 1-4 and the accompanying figures, bis RvE1 Mg-di-lysinate (Compound 1) was unexpectedly effective as an anti-cancer agent in each of these model systems when administered in a less than daily (LTD) dosing regimen. […] Without being bound by any theory, the surprising efficacy of LTD dosing of resolvins in the model systems described here may be the result of durable effects on the inflammatory phenotype of the tumor microenvironment including changes in immune cell phenotype, vascularization, stromal phenotype, and antigen presentation, as well as durable effects on the T-cell compartment such as T-cell priming and increased tumor-infiltrating lymphocytes. […]

Panc2-H7 cells = assay: Panc2-H7 model of pancreatic cancer, subcutaneous tumors; format: in vivo, C57BL/6J male mice; details: SC
Procedure: A representative compound of Formula IV, bis RvE1 magnesium di-lysinate (Compound 1), was tested for efficacy in several preclinical mouse models including the Panc2-H7 model of pancreatic cancer, and the MC38 model of colorectal cancer. These models are well established, highly tumorigenic syngeneic models in which murine cancer cell lines are injected subcutaneously (SC) into the dorsum of C57BL/6J mice. If left untreated, these tumors grow rapidly and lead to death or euthanasia, per protocol. As detailed below in Examples 1-4 and the accompanying figures, bis RvE1 Mg-di-lysinate (Compound 1) was unexpectedly effective as an anti-cancer agent in each of these model systems when administered in a less than daily (LTD) dosing regimen. […] Without being bound by any theory, the surprising efficacy of LTD dosing of resolvins in the model systems described here may be the result of durable effects on the inflammatory phenotype of the tumor microenvironment including changes in immune cell phenotype, vascularization, stromal phenotype, and antigen presentation, as well as durable effects on the T-cell compartment such as T-cell priming and increased tumor-infiltrating lymphocytes.
Based on the previous findings in the MC38 colorectal cancer model with less than daily (LTD) dosing, a study in the Panc2-H7 model was conducted to assess the efficacy of LTD dosing of bis RvE1 Mg-di-lysinate in a different tumor model. A total of forty (40) C57BL/6J male mice were injected subcutaneously with 1×10e6 living Panc2-H7 cells. Once tumors reached 160-320 mm^3 in size, the mice were randomized (n=8 per group) to treatment with vehicle or SC injection with bis RvE1 Mg-di-lysinate at 30 ug/kg and 300 ug/kg (QD, Q7D).

subcutaneous KPC tumors = assay: RNAseq cell enrichment analysis of tumor samples; format: in vivo, mice; details: Q6D treatment, Day 26, compared to placebo
Procedure: RNAseq analysis was performed on tumor samples from mice with subcutaneous KPC tumors sacrificed on Day 26 following treatment (Q6D) with bis RvE1 Mg-di-lysinate (Compound 1) compared to placebo. […] Darker color indicates increased gene expression, for various immune cells and other cells, as listed across the top of the heatmap. The boxed cells shown in FIG. 4 indicate an increase in markers of monocytes and DC cell subset (cDCs, pDCs, and iDCs) and markers of NK, CD8+ T cells, Th1 cells, and memory T cells (CD8+ and CD4+) with Compound 1 treatment. […] Namely, these unexpected results may be due to durable effects on the tumor microenvironment including changes in immune cell phenotype and the T-cell compartment such as T-cell priming and increased tumor-infiltrating lymphocytes.

[1] = Subcutaneous PK study of RvE1-Mg-Lys; format: in vivo, C57BL/6J mice; details: 100 or 300 ug/kg subcutaneous injection; baseline to 8 hours
Procedure: (§1) In the subcutaneous PK study, sixty-nine (69) C57BL/6J mice were administered 100 or 300 ug/kg doses of RvE1-Mg-Lys via subcutaneous injection. Mice were sacrificed and plasma was drawn at the following timepoints: baseline, 5, 15, 30 min, 1, 2, 4 and 8 hours (n=5 mice per timepoint). In the IV and oral PK studies, one-hundred eighty (180) Balb/c mice were administered RvE1-Na at 1 or 10 mg/kg via subcutaneous injection, IV injection, oral gavage (n=6 mice per timepoint). Plasma and lung tissue were assayed at the following timepoints: 0.25, 0.5, 1, 2, 6, 10 and 24 hours. […] Without being bound by any theory, the surprising efficacy of LTD dosing of resolvins in the cancer model systems described here may be the result of durable effects on the tumor microenvironment including changes in immune cell phenotype, vascularization, stromal phenotype, and antigen presentation, as well as durable effects on the T-cell compartment such as T-cell priming and increased tumor-infiltrating lymphocytes.

[2] = test system: polymorphonuclear leukocyte (PMN) recruitment; details: equimolar dose; cited from earlier work
[3] = PK studies of RvE1-Na (subcutaneous, IV, oral), plasma and lung tissue; format: in vivo, Balb/c mice; details: 0.25-24 hours
Procedure: as §1

[4] = test system: CD4+ and CD8+ cells in the liver; details: concanavalin A-induced murine model; cited from earlier work

Structure (SMILES): CC[C@@H](O)/C=C/C=C\C[C@@H](O)/C=C/C=C/C=C\[C@@H](O)CCCC(=O)O [Compound 1, bis RvE1 Mg-di-lysinate]
- tumor volume (Day 15 vs Day 0), efficacy as a single agent vs placebo (MC-38 cells; Q3D): effective as a single agent
- tumor volume (Day 15 vs Day 0), efficacy as a single agent vs placebo (MC-38 cells; QD): effective as a single agent
- tumor volume (Day 20 vs Day 0), inhibition relative to placebo control (Panc2-H7 cells; 30 ug/kg, Q7D): demonstrated inhibition relative to placebo control
- tumor volume (Day 20 vs Day 0), inhibition relative to placebo control (Panc2-H7 cells; 30 ug/kg, QD): demonstrated inhibition relative to placebo control
- tumor volume (Day 20 vs Day 0), inhibition relative to placebo control (Panc2-H7 cells; 300 ug/kg, Q7D, P<0.05 vs placebo control): greatest inhibition
- tumor volume (Day 20 vs Day 0), inhibition relative to placebo control (Panc2-H7 cells; 300 ug/kg, QD): demonstrated inhibition relative to placebo control
- markers of NK, CD8+ T cells, Th1 cells, and memory T cells (CD8+ and CD4+), gene expression (subcutaneous KPC tumors): increase
- markers of monocytes and DC cell subset (cDCs, pDCs, and iDCs), gene expression (subcutaneous KPC tumors): increase
- plasma levels of RvE1 over time [1]: rapid depletion

Structure (SMILES): CCC(=O)/C=C/C=C\C[C@@H](O)/C=C/C=C/C=C\[C@@H](O)CCCC(=O)O [Compound 18-oxo-RvE1, 18-oxo-RvE1]
- activity in zymosan-induced peritonitis (PMN recruitment) [2]: devoid of activity

Structure (SMILES): CC[C@@H](O)/C=C/C=C\C[C@@H](O)/C=C/C=C/C=C\[C@@H](O)CCCC(=O)[O-].[Na+] [RvE1-Na]
- plasma and lung tissue levels of RvE1 over time ([3]; 1 or 10 mg/kg IV injection): rapid depletion
- plasma and lung tissue levels of RvE1 over time ([3]; 1 or 10 mg/kg oral gavage): rapid depletion
- plasma and lung tissue levels of RvE1 over time ([3]; 1 or 10 mg/kg subcutaneous injection): rapid depletion

Structure (SMILES): CC/C=C\C[C@H](O)/C=C/C=C\C=C\C=C\[C@@H](O)[C@@H](O)C/C=C\CCC(=O)O [RvD1, 7S,8R,17S-trihydroxy-4Z,9E,11E,13Z,15E,19Z-docosahexaenoic acid]
- levels of CD4+ and CD8+ cells in the liver [4]: markedly downregulated

Structure (SMILES): CC[C@@H](O)/C=C/C=C\C[C@@H](O)/C=C/C=C/C=C\[C@@H](O)CCCC(=O)O [RvE1, 5S,12R,18R-trihydroxy-6Z,8E,10E,14Z,16E-eicosapentaenoic acid]
- levels of CD4+ and CD8+ cells in the liver [4]: markedly downregulated
- activity in zymosan-induced peritonitis (PMN recruitment) [2]: potently reduced

Reference: patent publication US20240180859A1, “COMPOSITIONS AND METHODS FOR IMMUNE-MEDIATED INFLAMMATORY DISEASES” (Thetis Pharmaceuticals LLC, priority 2022, published 2024)
